The text below walks through data of US20090318493A1 (Roche Palo Alto LLC, priority 2008, published 2009).

Read-outs that look alike come from different tables or passages of the source.

Common to all, as to format: binding
One assay deals with T1, hSERT transporter (Homo sapiens, UniProt P31645).
T1 construct: expressed in transfected cells; membranes prepared
Briefly: Human serotonin transporter (hSERT) scintillation proximity assay, competition with [3H]-Citalopram. An excerpt:
Screening for Human Serotonin Transporter (hSERT) Antagonists Using a Scintillation Proximity Assay (SPA)
The screening assay of this example was used to determine the affinity of ligands at the hSERT transporter by competition with [^3H]-Citalopram.
Scintillation Proximity Assay (SPA) works by bringing radioligand within close proximity to the bead's scintillant to stimulate light emission. In this assay, the receptor-containing membranes were pre-coupled to the SPA beads and the binding of the appropriate radioligand to the transporter was measured. The light emission was proportional to the amount of bound radioligand. Unbound radioligand produced no signal as a result of distant proximity to scintillant (lack of energy transfer).
Cells are released from culture flasks using PBS for 1-2 minutes. The cells were subsequently centrifuged at 1000 g's for 5 minutes and resuspended in PBS prior to being used in the membrane preparation.
(§1) Cell membranes were prepared using a membrane preparation buffer of 50 mM TRIS (pH 7.4). Cell membranes were prepared from a single cube (7.5×10^9 cells total). Cells were homogenized using a Polytron (setting medium for a 4 second burst). The homogenate was then centrifuged at 48,000×g for 15 minutes, the supernatant subsequently removed and discarded, and the pellet resuspended with fresh buffer. After a second centrifugation, the pellet was re-homogenized and brought to a final volume determined during the assay. Typically, membrane portions were aliquoted in 3 mg/ml (w:v). and stored at −80° C.
Compounds of the invention were diluted from 10 mM to 0.1 nM FAC (10 point curves, whole log/half log dilutions) via a Beckman Biomek 2000 using a serial dilution protocol. The test compounds were then transferred (20 μl/well) and the [^3H]-Citalopram radioligand was added at 50 μl/well. Membrane and beads were prepared to a ratio of 10 μg: 0.7 mg, with 0.7 mg PVT-WGA Amersham beads (Cat# RPQ0282V) added per well. 130 μl of the membrane: bead mixture was added to the assay plate.
The % inhibition was calculated for each compound tested [(Compound counts per minute (CPM) at maximum concentration-Non-Specific CPM)/Total CPM*100].
(§2) where max=total binding, min=non specific binding, x=concentration (M) of the tested compound and n=Hill slope. The inhibition dissociation constant (Ki) of each compound was determined according to the method of Cheng-Prusoff and then converted into negative logarithm (pKi) of the Ki.
A general note: SPA uses beads or plates that emit light when radiolabelled molecules are held near them.

Another assay has as its target T2, hDAT (Homo sapiens, UniProt Q01959).
T2 construct: expressed in transfected cells; plated whole cells
In words: Human dopamine transporter scintillation proximity assay, competition with [3H]-Vanoxerine. The method, then:
This assay was used to determine the affinity of ligands for the dopamine transporter by competition with [^3H]-Vanoxerine.
Cells were plated four hours prior to experiment by placing approximately 30,000 cells per well (in PBS) on white, opaque Cell-Tak coated 96 well plates. Extra buffer was apriated from the cell plates using an ELx405 plate washer.
Compounds of the invention were diluted from 10 mM to 0.1 nM FAC (10 point curves, whole log/half log dilutions) via a Beckman Biomek 2000 using a 10-point dilution protocol. The mixtures were allowed to stand at room temperature for 30 minutes, and were then counted on a Packard TopCount LCS, a generic SPA counting protocol settings, Count Time (min.): 0.40, Background Subtract: none, Half-Life Correction: none, Quench Indicator: tSIS, Platemap blank subtraction: none, Cross talk reduction: Off).
The % inhibition was calculated for each compound tested [(Compound CPM at maximum concentration-Non-Specific CPM)/Total CPM*100].
as §2

The target in the next assay is T3, hNET transporter (Homo sapiens, UniProt P23975).
T3 construct: expressed in transfected cells; membranes prepared
In words: Human norepinephrine transporter (hNET) scintillation proximity assay, competition with [3H]-Nisoxetine. The procedure:
This assay was used to determine the affinity of ligands for the hNET transporter by competition with [^3H]-Nisoxetine. As in the hSERT assay of the above example, receptor-containing membranes were pre-coupled to the SPA beads and the binding of the appropriate radioligand to the transporter was measured. The light emission was proportional to the amount of bound radioligand, with unbound radioligand producing no signal.
HEK-293 cells (Tatsumi et al., Eur. J. Pharmacol. 1997, 30, 249-258) stably expressing recombinant hNET (Clone: HEK-hNET #2) were maintained with media (DMEM hi glucose with 10% FBS, 300 μg/ml G418 and 2 mM L-Glutamine) and incubated at 37° C. with 5% CO2. Cells were released from culture flasks using PBS for 1-2 minutes. The cells were subsequently centrifuged at 1000 g's for 5 minutes and resuspended in PBS prior to being used in the membrane preparation.
as §1, with “(7.5×10^9cells” for “(7.5×10^9 cells”, “3-6 mg/mil” for “3 mg/ml”
^3[H] […] Compounds of the invention were diluted from 10 mM to 0.1 nM FAC (10 point curves, whole log /half log dilutions) via a Beckman Biomek 2000 using a serial dilution protocol. The test compounds were then transferred (20 μl/well) and the radioligand was added at 50 μl/well. Membrane and beads were prepared to a ratio of 10 μg: 0.7 mg, with 0.7 mg PVT-WGA Amersham beads (Cat# RPQ0282V) added per well. 130 μl of the membrane: bead mixture was added to the assay plate. The mixtures were allowed to stand at room temperature for one hour, and were then counted on a Packard TopCount LCS, a generic SPA counting protocol settings (Energy Range: Low, Efficiency Mode: Normal, Region A: 1.50-35.00, Region B: 1.50-256.00, Count Time (min.): 0.40, Background Subtract: none, Half-Life Correction: no, Quench Indicator: tSIS, Platemap blank subtraction: No, Cross talk reduction: Off).
The % inhibition was calculated for each compound tested [(Compound CPM at maximum concentration-Non-Specific CPM)/Total CPM*100]. The concentration producing 50% inhibition (IC50) was determined using an iterative non-linear curve fitting technique with Activity Base/Xlfit using the following equation:
as §2

Setting [1] is: Table 1, read-out: pIC50 SERT (converted).
Where [2] appears, read: Table 1, read-out: pIC50 DAT (converted).
The mark [3] stands for this setting: Table 1, read-out: pIC50 NET (converted).

T1 sequence (P31645 whole entry): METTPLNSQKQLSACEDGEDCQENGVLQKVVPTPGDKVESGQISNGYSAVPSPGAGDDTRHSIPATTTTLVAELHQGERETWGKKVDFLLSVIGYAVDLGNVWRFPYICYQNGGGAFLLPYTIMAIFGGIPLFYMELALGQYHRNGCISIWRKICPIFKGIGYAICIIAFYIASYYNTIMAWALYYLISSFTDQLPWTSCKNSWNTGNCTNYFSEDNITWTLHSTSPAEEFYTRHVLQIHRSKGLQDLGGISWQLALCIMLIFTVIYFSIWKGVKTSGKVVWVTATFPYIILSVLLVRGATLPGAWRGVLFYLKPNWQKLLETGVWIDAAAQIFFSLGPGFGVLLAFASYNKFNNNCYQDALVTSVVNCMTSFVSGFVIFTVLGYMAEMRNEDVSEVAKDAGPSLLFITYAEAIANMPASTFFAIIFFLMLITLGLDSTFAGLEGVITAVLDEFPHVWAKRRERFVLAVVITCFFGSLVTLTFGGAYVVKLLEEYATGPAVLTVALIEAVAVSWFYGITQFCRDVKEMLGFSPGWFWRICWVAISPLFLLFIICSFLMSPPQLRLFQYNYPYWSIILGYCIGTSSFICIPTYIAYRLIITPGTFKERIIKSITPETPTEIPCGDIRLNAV
T2 sequence (Q01959 whole entry): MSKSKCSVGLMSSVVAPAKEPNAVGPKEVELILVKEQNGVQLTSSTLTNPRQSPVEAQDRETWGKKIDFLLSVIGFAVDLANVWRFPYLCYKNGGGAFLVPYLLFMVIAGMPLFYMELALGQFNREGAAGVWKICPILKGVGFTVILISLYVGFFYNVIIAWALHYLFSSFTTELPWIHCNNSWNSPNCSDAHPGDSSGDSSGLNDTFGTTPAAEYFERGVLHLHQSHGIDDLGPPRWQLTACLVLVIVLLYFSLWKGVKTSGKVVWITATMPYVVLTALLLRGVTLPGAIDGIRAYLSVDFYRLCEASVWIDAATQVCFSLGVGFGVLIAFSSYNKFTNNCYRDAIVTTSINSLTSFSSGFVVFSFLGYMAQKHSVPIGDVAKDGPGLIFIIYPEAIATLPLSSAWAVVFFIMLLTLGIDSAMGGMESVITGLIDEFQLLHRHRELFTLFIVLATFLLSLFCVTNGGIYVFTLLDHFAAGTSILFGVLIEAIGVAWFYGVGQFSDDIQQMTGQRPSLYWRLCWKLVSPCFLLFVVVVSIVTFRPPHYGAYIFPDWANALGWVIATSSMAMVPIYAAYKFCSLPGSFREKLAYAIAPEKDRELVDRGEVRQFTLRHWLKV
T3 sequence (P23975 whole entry): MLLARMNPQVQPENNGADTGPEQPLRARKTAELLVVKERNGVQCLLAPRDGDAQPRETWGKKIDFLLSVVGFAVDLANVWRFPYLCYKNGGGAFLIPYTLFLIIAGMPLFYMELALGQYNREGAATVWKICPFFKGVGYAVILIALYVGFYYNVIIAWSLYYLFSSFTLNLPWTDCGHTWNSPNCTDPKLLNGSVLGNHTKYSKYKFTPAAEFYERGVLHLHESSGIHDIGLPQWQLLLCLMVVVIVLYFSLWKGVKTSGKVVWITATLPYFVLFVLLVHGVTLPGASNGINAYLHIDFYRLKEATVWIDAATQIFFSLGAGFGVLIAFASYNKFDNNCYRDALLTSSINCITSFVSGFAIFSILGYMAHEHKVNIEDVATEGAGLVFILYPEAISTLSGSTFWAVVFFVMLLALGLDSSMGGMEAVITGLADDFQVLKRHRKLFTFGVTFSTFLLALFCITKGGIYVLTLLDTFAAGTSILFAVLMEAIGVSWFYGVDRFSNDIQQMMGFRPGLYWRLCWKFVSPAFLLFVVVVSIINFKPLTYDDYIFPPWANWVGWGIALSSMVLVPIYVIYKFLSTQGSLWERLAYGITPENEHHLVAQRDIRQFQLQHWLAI

As to `COC(C)(C)CC1(C(=O)c2ccc(Cl)c(Cl)c2)CCNCC1` [Compound 37, (3,4-Dichloro-phenyl)-[4-(2-methoxy-2-methyl-propyl)-piperidin-4-yl]-methanone], the IC50 at hSERT transporter (setting [1]) is 1.12 nM; on hDAT (setting [2]) it was 4.79 nM; at hNET transporter (setting [3]) it was 105 nM.
`CC(C)(C)CC[C@]1(C(=O)c2cc(F)c(N)c(Cl)c2)CCNC1` [Compound 25, (4-Amino-3-chloro-5-fluoro-phenyl)-[(S)-3-(3,3-dimethyl-butyl)-pyrrolidin-3-yl]-methanone]: the results for the IC50 at hSERT transporter, at hDAT and on hNET transporter (setting [3]) were 1.74 nM, 0.55 nM and 0.977 nM, respectively.
Turning to `CC(C)CC1(C(=O)c2ccc(Cl)c(Oc3ccccc3)c2)CCNCC1` [Compound 45, (4-Chloro-3-phenoxy-phenyl)-(4-isobutyl-piperidin-4-yl)-methanone], the IC50 at hSERT transporter (setting [1]) is 2.4 nM; at hDAT (setting [2]) it was 34.7 nM; at hNET transporter (setting [3]) it was 2.57 nM.
On to `CCCC1(C(=O)c2ccc(Cl)c(OCCC(C)(C)C)c2)CCNC1` (stereo not drawn) [Compound 11, [4-Chloro-3-(3,3-dimethyl-butoxy)-phenyl]-(3-propyl-pyrrolidin-3-yl)-methanone], for which the IC50 on hSERT transporter was 52.5 nM; at hDAT (setting [2]), 1480 nM; on hNET transporter (setting [3]), 631 nM.
On to `CCCC1(C(=O)c2ccc(Cl)c(Oc3ccccc3F)c2)CCNC1` (stereo not drawn) [Compound 17, [4-Chloro-3-(2-fluoro-phenoxy)-phenyl]-(3-propyl-pyrrolidin-3-yl)-methanone], for which the IC50 at hSERT transporter was 47.9 nM; at hDAT it was 15.8 nM; on hNET transporter (setting [3]) it was 24 nM.
Regarding `O=C(c1ccccc1)C1(Cc2ccc(Cl)c(Cl)c2)CCNCC1` [Compound 43, [4-(3,4-Dichloro-benzyl)-piperidin-4-yl]-phenyl-methanone], the IC50 was 75.9 nM on hSERT transporter, 575 nM on hDAT (setting [2]) and 1510 nM on hNET transporter (setting [3]).
On to `CCCC1(C(=O)c2ccc(Cl)c(Oc3ccc(F)cc3)c2)CCNC1` (stereo not drawn) [Compound 18, [4-Chloro-3-(4-fluoro-phenoxy)-phenyl]-(3-propyl-pyrrolidin-3-yl)-methanone], for which the IC50 was 24 nM on hSERT transporter, 16.6 nM on hDAT and 15.1 nM at hNET transporter (setting [3]).
`CC(C)CCC1(C(=O)c2ccc(Cl)c(Oc3ccccc3)c2)CCNC1` (stereo not drawn) [Compound 12]: the IC50 on hSERT transporter was 43.7 nM; on hDAT (setting [2]), 1480 nM; on hNET transporter, 12 nM.
On to `CCCC1(C(=O)c2ccc3ccccc3c2)CCNCC1` [Compound 36, Naphthalen-2-yl-(4-propyl-piperidin-4-yl)-methanone], for which the IC50 on hSERT transporter is 0.102 nM; at hDAT, 9.12 nM; at hNET transporter (setting [3]) it was 15.8 nM.
On to `CC(C)(C)CC[C@@]1(C(=O)c2cc(F)c(N)c(Cl)c2)CCNC1` [Compound 26, (4-Amino-3-chloro-5-fluoro-phenyl)-[(R)-3-(3,3-dimethyl-butyl)-pyrrolidin-3-yl]-methanone], for which the IC50 was 75.9 nM at hSERT transporter, 26.9 nM on hDAT and 25.1 nM on hNET transporter (setting [3]).
The matching figures for `O=C(c1ccc(Cl)c(Cl)c1)C1(CC2CCCO2)CCNCC1` (stereo not drawn) [Compound 42, (3,4-Dichloro-phenyl)-[4-(tetrahydro-furan-2-ylmethyl)-piperidin-4-yl]-methanone]: 1 nM, 3.63 nM and 47.9 nM.
On to `CCCC1(C(=O)c2ccc(Cl)c(N(C)c3ccccc3)c2)CCNCC1` [Compound 51, [4-Chloro-3-(methyl-phenyl-amino)-phenyl]-(4-propyl-piperidin-4-yl)-methanone], for which the IC50 on hSERT transporter (setting [1]) was 18.6 nM; on hDAT (setting [2]) it was 195 nM; on hNET transporter (setting [3]), 162 nM.
As to `COC(C)(C)CCC1(C(=O)c2cc(F)c3[nH]ccc3c2)CCNC1` (stereo not drawn) [Compound 6], the IC50 is 1.07 nM at hSERT transporter, 15.5 nM at hDAT and 4.79 nM on hNET transporter (setting [3]).
As for `CCCC1(C(=O)c2ccc(Cl)c(Oc3ccccc3)c2)CCNCC1` [Compound 46, (4-Chloro-3-phenoxy-phenyl)-(4-propyl-piperidin-4-yl)-methanone], the IC50 on hSERT transporter (setting [1]) is 7.08 nM; at hDAT (setting [2]), 30.2 nM; on hNET transporter (setting [3]), 11.5 nM.
In the case of `CC(C)C[C@@]1(C(=O)c2cc(F)c(N)c(Cl)c2)CCNC1` [Compound 23], the IC50 is 4.79 nM at hSERT transporter, 6.17 nM on hDAT and 3.98 nM at hNET transporter (setting [3]).
In the same order, the values of `CCC1(C(=O)c2ccc(Cl)c(Oc3ccccc3)c2)CCNC1` (stereo not drawn) [Compound 19, (4-Chloro-3-phenoxy-phenyl)-(3-ethyl-pyrrolidin-3-yl)-methanone] are 57.5 nM, 7.59 nM and 26.3 nM.
The matching figures for `CCCC[C@]1(C(=O)c2ccc(Cl)c(Cl)c2N)CC2CC[C@H]1N2` [Compound 3]: 83.2 nM, 70.8 nM and 182 nM.
As to `Cc1ccc(C(=O)C2(CC(C)C)CCNCC2)cc1Cl` [Compound 35, (3-Chloro-4-methyl-phenyl)-(4-isobutyl-piperidin-4-yl)-methanone], the IC50 was 0.589 nM on hSERT transporter (setting [1]), 10.5 nM on hDAT (setting [2]) and 45.7 nM on hNET transporter (setting [3]).
In the case of `CCCC1(C(=O)c2ccc(Cl)c(Oc3ccccc3)c2)CCNC1` (stereo in doubt) [Compound 29, (4-Chloro-3-phenoxy-phenyl)-((S)-3-propyl-pyrrolidin-3-yl)-methanone], the figures for the IC50 at hSERT transporter, on hDAT and on hNET transporter (setting [3]) were 13.2 nM, 10.5 nM and 2.63 nM, respectively.
On to `CC(C)CC[C@]1(C(=O)c2cc(F)c(N)c(Cl)c2)CCNC1` [Compound 22, (4-Amino-3-chloro-5-fluoro-phenyl)-[(S)-3-(3-methyl-butyl)-pyrrolidin-3-yl]-methanone], for which the values for the IC50 on hSERT transporter (setting [1]), on hDAT and at hNET transporter were 132 nM, 83.2 nM and 33.1 nM, respectively.
